Literature values, collected in article PMC9516332 (Frontiers in Oncology, 2022).
Where two headings read alike, the source gives them in different places.

Columns and labels:
Details in all cases: cited from earlier work
[1] = target: panel of 255 wild-type kinases (Homo sapiens, UniProt Q9Y2H1)
[2] = target: T1, panel of 255 wild-type kinases (Homo sapiens, UniProt O15530)
T1 sequence (O15530 1-556): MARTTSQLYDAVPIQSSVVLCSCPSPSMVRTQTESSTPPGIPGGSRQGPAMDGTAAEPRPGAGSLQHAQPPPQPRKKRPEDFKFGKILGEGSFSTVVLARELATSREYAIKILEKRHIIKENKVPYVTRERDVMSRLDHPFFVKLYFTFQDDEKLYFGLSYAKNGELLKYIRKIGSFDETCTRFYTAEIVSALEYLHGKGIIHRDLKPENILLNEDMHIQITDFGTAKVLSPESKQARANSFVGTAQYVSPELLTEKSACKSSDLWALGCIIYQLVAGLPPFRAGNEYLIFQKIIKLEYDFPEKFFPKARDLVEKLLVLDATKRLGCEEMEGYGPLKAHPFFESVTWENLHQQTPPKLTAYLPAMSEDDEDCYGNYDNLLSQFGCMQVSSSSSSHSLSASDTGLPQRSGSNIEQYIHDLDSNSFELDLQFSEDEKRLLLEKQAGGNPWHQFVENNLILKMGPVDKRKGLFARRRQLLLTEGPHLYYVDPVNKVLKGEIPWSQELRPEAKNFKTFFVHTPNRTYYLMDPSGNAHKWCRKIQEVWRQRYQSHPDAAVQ

[3] = target: panel of 255 wild-type kinases (Homo sapiens, UniProt P53355)
[4] = target: T2, panel of 255 wild-type kinases (Homo sapiens, UniProt P43403)
T2 sequence (P43403 1-619): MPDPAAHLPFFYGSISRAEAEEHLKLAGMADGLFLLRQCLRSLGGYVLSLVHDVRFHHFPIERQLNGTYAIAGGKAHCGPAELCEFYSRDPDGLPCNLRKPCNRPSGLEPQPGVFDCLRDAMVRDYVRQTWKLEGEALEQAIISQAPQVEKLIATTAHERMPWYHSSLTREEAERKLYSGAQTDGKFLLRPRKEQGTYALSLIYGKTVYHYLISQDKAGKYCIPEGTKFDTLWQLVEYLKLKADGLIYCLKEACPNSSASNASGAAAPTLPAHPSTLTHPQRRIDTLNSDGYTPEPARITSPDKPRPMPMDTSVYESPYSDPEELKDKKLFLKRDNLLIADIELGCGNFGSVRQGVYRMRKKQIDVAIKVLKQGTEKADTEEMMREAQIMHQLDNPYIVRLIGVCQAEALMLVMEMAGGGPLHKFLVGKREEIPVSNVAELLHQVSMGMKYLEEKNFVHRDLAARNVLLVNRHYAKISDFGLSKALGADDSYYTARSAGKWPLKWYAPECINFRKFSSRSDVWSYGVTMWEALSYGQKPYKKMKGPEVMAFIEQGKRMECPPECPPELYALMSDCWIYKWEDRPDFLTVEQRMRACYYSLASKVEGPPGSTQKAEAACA

[5] = target: T3, panel of 255 wild-type kinases (Homo sapiens, UniProt P29322)
T3 sequence (P29322 28-1005): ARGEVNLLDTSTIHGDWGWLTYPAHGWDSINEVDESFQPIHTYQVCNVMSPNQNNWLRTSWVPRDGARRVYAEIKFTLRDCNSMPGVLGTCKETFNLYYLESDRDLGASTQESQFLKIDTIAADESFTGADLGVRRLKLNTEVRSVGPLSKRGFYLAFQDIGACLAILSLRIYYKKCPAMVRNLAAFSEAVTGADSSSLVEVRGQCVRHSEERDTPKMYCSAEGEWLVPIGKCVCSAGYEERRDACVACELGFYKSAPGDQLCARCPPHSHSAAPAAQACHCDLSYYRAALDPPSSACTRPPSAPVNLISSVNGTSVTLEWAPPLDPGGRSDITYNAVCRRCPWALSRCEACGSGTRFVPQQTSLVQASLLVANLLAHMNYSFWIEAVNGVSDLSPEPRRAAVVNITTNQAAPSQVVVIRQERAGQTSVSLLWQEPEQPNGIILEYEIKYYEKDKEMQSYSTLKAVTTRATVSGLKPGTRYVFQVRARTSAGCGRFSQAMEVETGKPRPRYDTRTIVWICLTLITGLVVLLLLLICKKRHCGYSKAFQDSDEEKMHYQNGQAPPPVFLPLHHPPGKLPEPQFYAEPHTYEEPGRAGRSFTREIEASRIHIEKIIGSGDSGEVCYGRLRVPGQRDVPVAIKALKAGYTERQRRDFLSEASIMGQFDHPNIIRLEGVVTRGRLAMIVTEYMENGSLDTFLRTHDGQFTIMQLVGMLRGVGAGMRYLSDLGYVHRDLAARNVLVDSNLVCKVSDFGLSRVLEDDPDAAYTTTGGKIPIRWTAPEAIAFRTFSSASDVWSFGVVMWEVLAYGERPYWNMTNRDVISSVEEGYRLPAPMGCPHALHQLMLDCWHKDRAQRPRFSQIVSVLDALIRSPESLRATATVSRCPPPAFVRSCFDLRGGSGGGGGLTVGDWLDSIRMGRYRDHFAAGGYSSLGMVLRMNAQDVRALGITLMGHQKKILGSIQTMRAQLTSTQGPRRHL

[6] = NDR2, 1 µmol/L single concentration, ref DOI: 10.1158/1535-7163.MCT-18-0877
[7] = kinase PDK1, 1 µmol/L single concentration, ref DOI: 10.1158/1535-7163.MCT-18-0877
[8] = kinase DAPK1, 1 µmol/L single concentration, ref DOI: 10.1158/1535-7163.MCT-18-0877
[9] = kinase ZAP70, 1 µmol/L single concentration, ref DOI: 10.1158/1535-7163.MCT-18-0877
[10] = kinase EPHA8, 1 µmol/L single concentration, ref DOI: 10.1158/1535-7163.MCT-18-0877
[11] = NDR2, 1 µmol/L single concentration, ref DOI: 10.1371/journal.pone.0092146
[12] = kinase PDK1, 1 µmol/L single concentration, ref DOI: 10.1371/journal.pone.0092146
[13] = kinase DAPK1, 1 µmol/L single concentration, ref DOI: 10.1371/journal.pone.0092146
[14] = kinase ZAP70, 1 µmol/L single concentration, ref DOI: 10.1371/journal.pone.0092146
[15] = kinase EPHA8, 1 µmol/L single concentration, ref DOI: 10.1371/journal.pone.0092146

Row | Structure (SMILES) | %-inhibition, NDR2 [1, 6] [%] | %-inhibition at 1 µmol/L, PDK1 [2, 7] [%] | %-inhibition at 1 µmol/L, DAPK1 [3, 8] [%] | %-inhibition at 1 µmol/L, ZAP70 [4, 9] [%] | %-inhibition at 1 µmol/L, EPHA8 [5, 10] [%] | %-inhibition, NDR2 [1, 11] [%] | %-inhibition at 1 µmol/L, PDK1 [2, 12] [%] | %-inhibition at 1 µmol/L, DAPK1 [3, 13] [%] | %-inhibition at 1 µmol/L, ZAP70 [4, 14] [%] | %-inhibition at 1 µmol/L, EPHA8 [5, 15] [%] | also measured
1 | CC#CC(=O)N1CCC[C@H]1c1nc(-c2ccc(C(=O)Nc3ccccn3)cc2)c2c(N)nccn12 [acalabrutinib] | -6.41 | -1.47 | -17 | -1.53 | 6.51 |  |  |  |  |  | 
2 | CCc1cc2c(cc1N1CCC(N3CCOCC3)CC1)C(C)(C)c1[nH]c3cc(C#N)ccc3c1C2=O [alectinib] | 4 | -2.12 | 58 | 1.18 | 12 |  |  |  |  |  | 
3 | COc1cc(N2CCC(N3CCN(C)CC3)CC2)ccc1Nc1ncc(Cl)c(Nc2ccccc2P(C)(C)=O)n1 [brigatinib] |  |  |  |  |  |  |  |  |  |  | %-inhibition, NDR2 [1]: 62%; %-inhibition at 1 µmol/L, PDK1 [2]: 4.31%; %-inhibition at 1 µmol/L, DAPK1 [3]: 83%; %-inhibition at 1 µmol/L, ZAP70 [4]: 74%; %-inhibition at 1 µmol/L, EPHA8 [5]: 6.55%
4 | Cc1cc(Nc2ncc(Cl)c(Nc3ccccc3S(=O)(=O)C(C)C)n2)c(OC(C)C)cc1C1CCNCC1 [ceritinib] | 14 | -2.25 | 6 | 10 | 6 |  |  |  |  |  | 
5 | O=C(c1ccc(F)c(F)c1Nc1ccc(I)cc1F)N1CC(O)([C@@H]2CCCCN2)C1 [cobimetinib] | 2.54 | -1.65 | -4 | -3 | -5.33 |  |  |  |  |  | 
6 | C[C@@H](Oc1cc(-c2cnn(C3CCNCC3)c2)cnc1N)c1c(Cl)ccc(F)c1Cl [crizotinib] |  |  |  |  |  | -4.76 | -5 | -4 | 21 | 82 | 
7 | CC(C)(C)c1nc(-c2cccc(NS(=O)(=O)c3c(F)cccc3F)c2F)c(-c2ccnc(N)n2)s1 [dabrafenib] |  |  |  |  |  | -2 | -5.38 | -0.54 | 3.47 | 35 | 
8 | C=CC(=O)N1CCC[C@@H](n2nc(-c3ccc(Oc4ccccc4)cc3)c3c(N)ncnc32)C1 [ibrutinib] | 3.47 | -2 | -3.8 | -4.51 | 55 |  |  |  |  |  | 
9 | CO[C@@H]1[C@H](N(C)C(=O)c2ccccc2)C[C@H]2O[C@]1(C)n1c3ccccc3c3c4c(c5c6ccccc6n2c5c31)C(=O)NC4 [midostaurin] | 22 | 98 | 57 | 94 | 6.51 |  |  |  |  |  | 
10 | C=CC(=O)Nc1cc(Nc2nccc(-c3cn(C)c4ccccc34)n2)c(OC)cc1N(C)CCN(C)C [osimertinib] | 10 | 0.0271 | 29 | 18 | -8 |  |  |  |  |  | 
11 | CC(=O)Nc1cccc(-n2c(=O)n(C3CC3)c(=O)c3c(Nc4ccc(I)cc4F)n(C)c(=O)c(C)c32)c1 [trametinib] |  |  |  |  |  | -1.48 | -5.52 | -6 | -3 | -8 | 
12 | CCCS(=O)(=O)Nc1ccc(F)c(C(=O)c2c[nH]c3ncc(-c4ccc(Cl)cc4)cc23)c1F [vemurafenib] |  |  |  |  |  | -2.51 | -4 | -0.115 | 6 | 7 | 
